Test [1] concerns Porcine LLC-PK1 cells (kidney proximal tubule cell line). Nature of the test: Cold-induced cell death (cold storage), MTS viability assay. Type of test: cell-based. The note with it: 0.01-50.00 μM, 24 hours at 4° C., FIGS. 16a, 16b. As for the experimental part: At it was previously shown (Ahlenstiel et al. Transplantation […], 81(2), 231-239), cold storage induces a cell-death process. Porcine LLC-PK1 cells (kidney proximal tubule cell line) were stored at approximately 4° C. during 24 hours with or without the tested molecules. […] Cells were then incubated at 37° C., 5% CO2 before performing MTS viability assay. Cell viability was monitored using CellTiter 96® AQueous Non-Radioactive Cell Proliferation Assay (Promega, Fitchburg, WI, USA), based on the water-soluble tetrazolium compound MTS (3-[4,5-dimethylthiazol-2-yl]-5-[3-carboxymethoxy-phenyl]-2-[4-sulfophenyl]-2H-tetrazolium, inner salt) according to the manufacturers instructions.

Test [2] deals with rat embryonic myoblastic H9C2 cells. Nature of the test: H2O2-induced necrosis, LDH release assay. The note with it: 10 μM, 2 hours pretreatment, 800 μM H2O2 for 24 hours, FIG. 17. Type of test: cell-based. How it is done: The rat embryonic myoblastic H9C2 cells were cultured at 10,000 cells/well in 96-well-plates for 24 hours at 37° C./5% CO2. […] LB corresponds to cells treated with a lysis buffer (100% of cell death). Cell cytotoxicity was determined by a colorimetric assay quantitatively measuring lactate dehydrogenase (LDH) released […].
For orientation: LDH leaks from cells whose membrane has failed.

For test [3], the system named is Human retinal pigment epithelial cell line, ARPE-19. The note with it: 200 μM, Hanus et al. 2016; cited from earlier work.

Results on 2 compounds are retold here after patent US11819492B2, “Natural product derivatives for inhibiting cellular necroptosis, ferroptosis and oxytosis” (Institut National de la Sante et de la Recherche Medicale …, priority 2016, dated 2023).

For the compound `CN1C(=O)NC(Cc2c[nH]c3c(Cl)cccc23)C1=O` (stereo not drawn) [Nec-1s, Necrostatin-1s, reference compound], the “protection from death induced by cold storage” value in test [1] was “inactive”. The “protection from death induced by H2O2 (LDH release)” value in test [2] is on record as “less effective”.
As for `CN1C(=O)C(Cc2c[nH]c3ccccc23)NC1=S` (stereo not drawn) [necrostatin-1], the “inhibition of NaIO3-induced necroptosis in retinal pigment epithelial cell line” value in test [3] is listed as “inhibited”.
